How the values were obtained:
[1] = Nose temperature after ingestion in human subjects; format: in vivo; settings: fifteen minutes following ingestion, FIG. 7
Description: The nose temperature of the subjects was analyzed over the fifteen minutes following ingestion of the various compounds.

[2] = Comparative taste testing in human subjects; format: in vivo; settings: 4.8 ppm capsaicin or 350 ppm cinnamaldehyde, FIG. 9
Description: Human subjects were administered a composition comprising 4.8 ppm capsaicin or 350 ppm cinnamaldehyde. […] 87.9% of the participants judged capsaicin intense to very intense, compared to only 20.5% for cinnamaldehyde. To achieve a similar effect on fat oxidation of capsaicin and cinnamaldehyde, the dose of capsaicin is about 1.5 times less than the maximum that can be used as a flavor (7 ppm according to Fenaroli's Handbook; Burdock, 2010), and the dose of cinnamaldehyde is about 17.5 times less than the maximum that can be used as a flavor (6191.0 ppm according to Fenaroli's Handbook; Burdock, 2010).

[3] = Chin temperature after ingestion in human subjects (sympathetic autonomic activity); format: in vivo; settings: for AUC difference in chin temperature relative to placebo: Z10, comparison vs Pl (placebo)
Description: The chin temperature of the subjects was measured over the eighty minutes following ingestion of the various compounds. […] The increased sympathetic activity identified by measuring the facial temperature (increased blood flow on the chin) might explain the increased energy expenditure measured by indirect calorimetry.

[4] = target: TRPA1 (Homo sapiens, UniProt O75762); settings: background statement; read-out: EC50 for activation of TRPA1; cited from earlier work
TRPA1, sequence (O75762 whole entry, species assumed): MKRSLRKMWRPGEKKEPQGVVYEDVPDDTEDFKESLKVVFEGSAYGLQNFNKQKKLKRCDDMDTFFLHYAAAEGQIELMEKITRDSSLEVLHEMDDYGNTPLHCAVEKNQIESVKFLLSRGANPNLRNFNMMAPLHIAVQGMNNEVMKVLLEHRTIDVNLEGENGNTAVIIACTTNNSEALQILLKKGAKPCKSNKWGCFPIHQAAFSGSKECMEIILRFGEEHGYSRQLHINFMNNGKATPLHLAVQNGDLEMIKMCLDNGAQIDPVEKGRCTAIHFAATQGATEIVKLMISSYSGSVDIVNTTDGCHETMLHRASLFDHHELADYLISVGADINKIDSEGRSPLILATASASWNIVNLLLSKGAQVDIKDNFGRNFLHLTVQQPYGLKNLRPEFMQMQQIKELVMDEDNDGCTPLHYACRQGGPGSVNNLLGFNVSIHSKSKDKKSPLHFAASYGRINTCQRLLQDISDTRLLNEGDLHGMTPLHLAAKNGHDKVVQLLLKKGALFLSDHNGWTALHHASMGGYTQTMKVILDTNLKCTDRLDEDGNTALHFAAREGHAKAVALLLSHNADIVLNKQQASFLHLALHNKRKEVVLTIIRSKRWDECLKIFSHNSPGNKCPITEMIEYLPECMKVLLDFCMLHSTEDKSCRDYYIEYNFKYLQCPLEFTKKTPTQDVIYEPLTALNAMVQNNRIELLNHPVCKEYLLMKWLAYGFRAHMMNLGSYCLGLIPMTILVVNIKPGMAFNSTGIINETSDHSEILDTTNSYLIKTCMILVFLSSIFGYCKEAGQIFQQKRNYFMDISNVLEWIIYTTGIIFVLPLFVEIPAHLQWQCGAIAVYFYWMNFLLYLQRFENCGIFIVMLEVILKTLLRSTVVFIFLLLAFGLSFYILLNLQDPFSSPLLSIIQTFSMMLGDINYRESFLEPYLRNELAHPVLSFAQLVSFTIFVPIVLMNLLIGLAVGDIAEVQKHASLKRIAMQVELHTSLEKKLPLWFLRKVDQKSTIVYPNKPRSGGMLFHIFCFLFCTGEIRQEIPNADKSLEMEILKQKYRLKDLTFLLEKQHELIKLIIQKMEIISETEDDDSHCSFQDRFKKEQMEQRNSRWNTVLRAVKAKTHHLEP

[5] = Postprandial fat oxidation after ingestion in human subjects; format: in vivo
Description: The postprandial fat oxidation was measured over the 90 minutes following ingestion of the various compounds.

[6] = target: TRPM8 (Homo sapiens, UniProt Q7Z2W7); settings: background statement; cited from earlier work
TRPM8, sequence (Q7Z2W7 whole entry, species assumed): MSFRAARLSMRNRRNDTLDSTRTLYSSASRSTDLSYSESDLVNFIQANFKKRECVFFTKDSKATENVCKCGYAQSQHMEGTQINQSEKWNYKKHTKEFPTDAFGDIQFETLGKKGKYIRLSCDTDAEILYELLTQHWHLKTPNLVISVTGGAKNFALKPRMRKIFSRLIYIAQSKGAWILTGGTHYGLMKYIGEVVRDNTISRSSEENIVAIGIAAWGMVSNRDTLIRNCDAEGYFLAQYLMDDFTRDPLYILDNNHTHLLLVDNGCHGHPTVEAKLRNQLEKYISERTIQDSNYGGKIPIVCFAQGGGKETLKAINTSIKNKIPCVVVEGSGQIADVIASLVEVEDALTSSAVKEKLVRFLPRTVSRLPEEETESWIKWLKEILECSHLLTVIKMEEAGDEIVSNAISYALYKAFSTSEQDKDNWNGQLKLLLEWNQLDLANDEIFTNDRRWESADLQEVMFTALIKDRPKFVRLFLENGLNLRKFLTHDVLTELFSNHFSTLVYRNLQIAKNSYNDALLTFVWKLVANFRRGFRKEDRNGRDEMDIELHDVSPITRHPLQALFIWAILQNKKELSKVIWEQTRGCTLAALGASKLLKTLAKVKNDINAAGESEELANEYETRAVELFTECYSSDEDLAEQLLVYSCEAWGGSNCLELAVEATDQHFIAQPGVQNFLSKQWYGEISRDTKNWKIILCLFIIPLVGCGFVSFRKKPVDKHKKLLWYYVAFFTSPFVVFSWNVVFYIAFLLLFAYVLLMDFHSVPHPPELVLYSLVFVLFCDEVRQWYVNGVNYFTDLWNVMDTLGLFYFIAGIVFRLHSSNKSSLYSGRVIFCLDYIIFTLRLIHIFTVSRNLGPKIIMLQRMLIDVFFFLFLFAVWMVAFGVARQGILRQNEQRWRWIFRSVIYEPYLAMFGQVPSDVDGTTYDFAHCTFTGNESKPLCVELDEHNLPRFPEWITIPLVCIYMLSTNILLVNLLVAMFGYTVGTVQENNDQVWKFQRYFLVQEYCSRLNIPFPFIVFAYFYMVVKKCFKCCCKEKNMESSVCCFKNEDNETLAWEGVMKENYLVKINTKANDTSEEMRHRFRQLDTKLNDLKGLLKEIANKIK

[7] = Energy expenditure after ingestion in human subjects; format: in vivo
Description: Human subjects were administered placebo, a cooling flavor, capsaicin, or cinnamaldehyde. The energy expenditure was measured over the eighty minutes following ingestion.

[8] = target: T1, hTRPA1 expressed in CHO cells (Homo sapiens, UniProt O75762); assay: In vitro activity of hTRPA1 expressed in CHO cells (intracellular calcium, fluorescent dye); format: cell-based; design: in vitro activity of hTRPA1, positive control efficacy: dose or concentration left out as unconfirmed
T1 construct: expressed in transfected cells; host or cells: CHO cells
T1 sequence (O75762 whole entry): as the sequence (O75762 whole entry, species assumed) above

[9] = target: TRPV1 (Homo sapiens, UniProt Q8NER1); settings: background statement; cited from earlier work
TRPV1, sequence (Q8NER1 whole entry, species assumed): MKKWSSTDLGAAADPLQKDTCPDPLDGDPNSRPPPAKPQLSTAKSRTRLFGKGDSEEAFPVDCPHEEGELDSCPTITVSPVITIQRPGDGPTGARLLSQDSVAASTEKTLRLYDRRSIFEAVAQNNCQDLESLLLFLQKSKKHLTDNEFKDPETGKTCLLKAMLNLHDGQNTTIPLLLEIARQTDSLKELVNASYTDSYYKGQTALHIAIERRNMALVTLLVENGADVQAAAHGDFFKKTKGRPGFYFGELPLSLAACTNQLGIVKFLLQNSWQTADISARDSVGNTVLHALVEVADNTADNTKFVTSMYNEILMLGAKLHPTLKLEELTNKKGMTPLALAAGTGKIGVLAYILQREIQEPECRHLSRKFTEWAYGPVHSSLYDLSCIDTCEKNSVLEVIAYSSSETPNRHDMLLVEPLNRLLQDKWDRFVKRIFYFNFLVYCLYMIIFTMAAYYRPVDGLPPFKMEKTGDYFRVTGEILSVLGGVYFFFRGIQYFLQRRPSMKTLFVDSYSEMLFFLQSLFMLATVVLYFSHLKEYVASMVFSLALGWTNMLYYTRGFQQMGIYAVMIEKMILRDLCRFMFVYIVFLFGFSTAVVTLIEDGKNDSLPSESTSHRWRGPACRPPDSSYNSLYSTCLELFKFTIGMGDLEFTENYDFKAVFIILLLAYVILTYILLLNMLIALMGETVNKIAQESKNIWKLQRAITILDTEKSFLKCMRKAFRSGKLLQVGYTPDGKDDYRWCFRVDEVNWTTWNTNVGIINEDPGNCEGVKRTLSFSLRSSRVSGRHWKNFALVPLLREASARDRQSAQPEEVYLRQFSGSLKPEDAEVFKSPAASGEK

[10] = flavoring level of cinnamaldehyde judged significantly less intense than capsaicin

Row | SMILES | nose temperature [1] | participants who judged the taste intense to very intense [2] [%] | AUC difference in chin temperature relative to placebo ([3]; human subjects) | EC50 [4] [µM] | impact on sympathetic nervous system activity compared to capsaicin [3, 10] | chin temperature relative to baseline ([3]; human subjects, over the eighty minutes following ingestion, FIG. 8) | effect on fat oxidation compared to capsaicin [5, 10] | postprandial fat oxidation compared to placebo ([5]; human subjects, over the 90 minutes following ingestion, FIGS. 5 and 6) | activation of TRPM8 [6] | impact on energy expenditure compared to capsaicin [7, 10] | energy expenditure compared to placebo ([7]; human subjects, over the eighty minutes following ingestion, FIGS. 3 and 4) | in vitro activity of hTRPA1, positive control efficacy ([8]; according to a dose-response curve) | activation of TRPV1 [9] | zinc concentration required for synergy with cinnamaldehyde on TRPA1 ([8]; in vitro) [µM]
1 | COc1cc(CNC(=O)CCCC/C=C/C(C)C)ccc1O [capsaicin, reference compound] | increase nose temperatures | 87.9 | 25.26 |  |  |  |  |  |  |  |  |  |  | 
2 | O=CC=Cc1ccccc1 [cinnamaldehyde] | increase nose temperatures |  | 34.072 | ~10 | significantly higher impact | increases chin temperature for a prolonged time | equivalent effect | maintained at higher levels | not | significantly higher impact | increased | maximum efficacy | not | 
3 | [Zn] [zinc] |  |  |  |  |  |  |  |  |  |  |  |  |  | < 1
